# Literature values, collected in patent publication US20250319149A1, “COMPOSITIONS FOR TREATING IMBALANCES OF THE GUT MICROBIOTA” (Provexis Natural Products Limited, priority 2022, published 2025).
# System: TMAO-induced atherosclerosis
# Settings: mice; Chen et al.
structure (smiles),measurement,value
Oc1ccc(C=Cc2cc(O)cc(O)c2)cc1 [resveratrol],TMAO-induced atherosclerosis,attenuated
